This is an account of results in patent publication US5508311A, “Aliphatic propargylamines as selective MAO-B inhibitors and as neuroprotective agents” (University of Saskatchewan, priority 1993, dated 1996).

In one series the target is T1, MAO-B (Rattus norvegicus, UniProt P19643).
T1 sequence (P19643 1-520): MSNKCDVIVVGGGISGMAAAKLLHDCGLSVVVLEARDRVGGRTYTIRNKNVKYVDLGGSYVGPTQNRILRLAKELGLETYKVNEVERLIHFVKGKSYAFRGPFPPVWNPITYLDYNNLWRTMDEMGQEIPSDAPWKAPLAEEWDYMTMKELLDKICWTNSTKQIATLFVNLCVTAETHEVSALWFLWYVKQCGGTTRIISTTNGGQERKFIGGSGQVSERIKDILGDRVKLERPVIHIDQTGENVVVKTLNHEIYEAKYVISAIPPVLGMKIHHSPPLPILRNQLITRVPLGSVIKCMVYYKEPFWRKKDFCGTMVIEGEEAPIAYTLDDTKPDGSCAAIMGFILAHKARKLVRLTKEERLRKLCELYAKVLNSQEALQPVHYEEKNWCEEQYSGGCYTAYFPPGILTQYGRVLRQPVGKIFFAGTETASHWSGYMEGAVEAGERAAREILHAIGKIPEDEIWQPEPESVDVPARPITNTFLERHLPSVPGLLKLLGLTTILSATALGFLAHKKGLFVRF
The series can be described thus: biochemical. In kind it is biochemical.

For another series, the system named is dopamine neurons. The series can be described thus: Protection of dopamine neurons against MPTP-induced neurotoxicity in the mice brain. In kind it is in vivo, mouse. From the text: Three days later, dopamine levels and dopamine uptake site densities (GBR bindings) were estimated.
For series [1] the following is noted: mouse, in vivo. The text has this:
The acute toxicity of these compounds is quite low. […]. The aliphatic side-chains of these aliphatic propargyl compounds are similar to those that exist in endogenous lipids and fatty acids and such aliphatic chains are readily oxidized in vivo. […]

Structures are written as SMILES.

Regarding `C#CCN(C)C(C)CCC.Cl.O=C(O)C(=O)O` (stereo not shown) [Example M-2-PP, N-(2-Pentyl)-N-methylpropargylamine hydrochloride and oxalate], the “Ratio MAO-A/MAO-B” value at MAO-B (rat, liver mitochondrial membranes) is 50. For the same molecule, the 50% inhibitory concentration (IC50) on MAO-B (read-out: PE IC50) stood at 200 nM. In the series on dopamine neurons (0.5 mg/Kg + MPTP), the Dopamine is given as 8.3 μg/gm and the Dopamine binding site was determined as 312 pmol/mg. Besides, in the series with dopamine neurons (2.5 mg/Kg + MPTP), the Dopamine is 8.9 μg/gm and the Dopamine binding site came out at 306 pmol/mg. Moreover, the “fatality after oral administration” value in series [1] is listed as “no fatality”.
